Assay results as given in paper PMC7604827 (Bioorganic & medicinal chemistry, 2011).
Where a name gives a salt, the structure may show the parent alone. Read-outs that look alike come from different tables or passages of the source.

What was measured:
[1] = test system: cell–cell fusion reaction between target cells expressing CD4/CCR5 and effector cells expressing the envelope protein of HIV-1; format: cell-based
[2] = pH 6.8; cited from earlier work
[3] = rat, 10 mg/kg, po
human CCR5 [4] = molecular target: T1, human CCR5 (Homo sapiens, UniProt P51681); settings: (3R,1′R)-configuration versus other stereoisomers; cited from earlier work
CCR5/hRANTES = CCR5/hRANTES (Cavia porcellus, UniProt A0A286Y1F6); settings: read-out: CCR5/hRANTES Ca assay IC50; Guinea pig
[5] = up to the dosage of 100 mg/kg, po
[6] = test system: broad panel of receptors and transporters including the other chemokines; test: Broad panel of receptors and transporters including the other chemokines
in vivo = settings: rat, po, 10 mg/kg
human CCR5 [7] = molecular target: T1, human CCR5; format: cell-based
HIV-1MM (R5MDR) = settings: read-out: Anti-HIV-1 activity HIV-1MM (R5MDR) IC50 ± SD; inhibition of HIV p24 antigen expression in PBMC, mean ± SD, triplicate
HIV-1Ba-L (R5) = settings: inhibition of HIV p24 antigen expression in PBMC, mean ± SD, triplicate

T1 sequence (P51681 whole entry): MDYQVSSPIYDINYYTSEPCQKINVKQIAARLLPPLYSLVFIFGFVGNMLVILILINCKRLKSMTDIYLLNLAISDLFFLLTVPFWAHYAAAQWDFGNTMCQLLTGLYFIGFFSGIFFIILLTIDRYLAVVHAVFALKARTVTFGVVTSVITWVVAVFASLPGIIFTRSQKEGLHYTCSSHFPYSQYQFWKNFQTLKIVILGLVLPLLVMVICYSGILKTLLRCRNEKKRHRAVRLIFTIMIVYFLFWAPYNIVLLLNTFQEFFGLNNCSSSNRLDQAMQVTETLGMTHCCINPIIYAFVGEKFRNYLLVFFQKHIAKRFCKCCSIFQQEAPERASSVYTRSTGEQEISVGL
CCR5/hRANTES, sequence (A0A286Y1F6 1-353): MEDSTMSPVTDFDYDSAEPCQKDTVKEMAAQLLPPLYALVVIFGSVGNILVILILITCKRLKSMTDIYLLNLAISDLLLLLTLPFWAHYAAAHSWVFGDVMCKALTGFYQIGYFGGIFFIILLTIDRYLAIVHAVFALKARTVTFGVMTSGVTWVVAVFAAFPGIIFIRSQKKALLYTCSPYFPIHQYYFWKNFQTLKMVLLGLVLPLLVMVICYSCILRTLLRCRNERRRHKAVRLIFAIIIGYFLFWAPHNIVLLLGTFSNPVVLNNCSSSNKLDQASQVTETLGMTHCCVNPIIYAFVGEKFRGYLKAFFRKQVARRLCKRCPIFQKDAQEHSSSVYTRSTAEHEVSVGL

With CCCCN1C(=O)[C@@H](C(O)C2CCC(O)CC2)NC(=O)C12CCN(Cc1ccc(Oc3ccc(C(=O)O)cc3)cc1)CC2 (stereo in doubt) [Compound 20b, 4-[4-({(3R)-1-Butyl-3-[(R)-hydroxy(4-hydroxycyclohexyl)methyl]-2,5-dioxo-1,4,9-triazaspiro[5.5]undec-9-yl}methyl)phenoxy]benzoic acid hydrochloride] the IC50 ([1]; read-out: Fusion assay IC50) was 129 nM.
In the case of CCCCN1C(=O)C(C(C)C)NC(=O)C12CCN(Cc1ccc(Oc3ccccc3)cc1)CC2.Cl (stereo not drawn) [Compound 1], the aqueous solubility [2] is given as “less than 0.2 μg/ml” and the BA [3] is given as 1.3%.
In the case of CCCCN1C(=O)C(CC2CCCCC2)NC(=O)C12CCN(Cc1ccc(Oc3ccc(C(=O)NC)cc3)cc1)CC2.Cl (stereo not drawn) [Compound 2], the BA [3] is reported as 1.9%.
In the case of CCCCN1C(=O)[C@@H]([C@H](O)C(C)C)NC(=O)C12CCN(Cc1ccc(Oc3ccccc3)cc1)CC2.Cl [Compound 3], the “fold more potency than the other stereoisomers in the Ca assay” value (human CCR5 [4]) is listed as 4.5–12 fold.
For CCCCN1C(=O)[C@H](CC2CCCCC2)NC(=O)C12CCN(Cc1ccc(Oc3ccc(C(=O)O)cc3)cc1)CC2.Cl [Compound 5], the BA [3] was 34%.
For CCCCN1C(=O)[C@@H]([C@H](O)C2CCCCC2)NC(=O)C12CCN(Cc1ccc(Oc3ccc(C(=O)O)cc3)cc1)CC2.Cl [Compound 6a, 4-[4-({(3R)-1-Butyl-3-[(R)-cyclohexyl(hydroxy)methyl]-2,5-dioxo-1,4,9-triazaspiro[5.5]undec-9-yl}methyl)phenoxy]benzoic acid hydrochloride], the IC50 (CCR5/hRANTES) was greater than 30 µM, the AMES test result (AMES test) was “did not show any significant safety problem” and the “14-day rat safety study result” value [5] was “did not show any significant safety problem”. For the same molecule, the “activity against a broad panel of receptors and transporters” value [6] was “no significant activity” and the BA [3] was 23%.
CCCCN1C(=O)[C@@H]([C@H](O)C2CCCCC2)NC(=O)C12CCN(Cc1ccc(Oc3ccc(O)cc3)cc1)CC2 [Compound 8, (3R)-1-Butyl-3-[(R)-cyclohexyl(hydroxy)methyl]-9-[4-(4-hydroxyphenoxy)benzyl]-1,4,9-triazaspiro[5.5]undecane-2,5-dione hydrochloride] showed an IC50 ([1]; read-out: Fusion assay IC50) of 2.8 nM.
Work on CCCCN1C(=O)[C@@H]([C@H](O)C2CCCCC2)NC(=O)C12CCN(Cc1ccc(Oc3ccc(C(=O)NC)cc3)cc1)CC2.Cl [Compound 10, 4-[4-({(3R)-1-Butyl-3-[(R)-cyclohexyl(hydroxy)methyl]-2,5-dioxo-1,4,9-triazaspiro[5.5]undec-9-yl}methyl)phenoxy]-N-methylbenzamide hydrochloride] yielded an AUC (in vivo) of 1300 ng·h/mL, a Cmax (in vivo) of 333 ng/mL and a BA [3] of 10%.
Molecule CCCCN1C(=O)[C@@H]([C@H](O)C2CCCCC2)NC(=O)C12CCN(Cc1ccc(Oc3ccc(NS(C)(=O)=O)cc3)cc1)CC2.Cl [Compound 13, N-{4-[4-({(3R)-1-Butyl-3-[(R)-cyclohexyl (hydroxy)methyl]-2,5-dioxo-1,4,9-triazaspiro[5.5]undec-9-yl}methyl)phenoxy]phenyl}methanesulfonamide hydrochloride] has an AUC (in vivo) of 242 ng·h/mL, a Cmax (in vivo) of 50 ng/mL and a BA [3] of 5%.
CCCCN1C(=O)[C@@H]([C@H](O)C(C)C)NC(=O)C12CCN(Cc1ccc(Oc3ccc(C(=O)O)cc3)cc1)CC2.Cl [Compound 14, 4-[4-({(3R)-1-Butyl-3-[(1R)-1-hydroxy-2-methylpropyl]-2,5-dioxo-1,4,9-triazaspiro[5.5]undec-9-yl}methyl)phenoxy]benzoic acid hydrochloride] gave an AUC (in vivo) of 150 ng·h/mL and a BA [3] of 5.9%.
CCCCN1C(=O)[C@@H]([C@H](O)C2CCOCC2)NC(=O)C12CCN(Cc1ccc(Oc3ccc(C(=O)O)cc3)cc1)CC2 [Compound 19, 4-[4-({(3R)-1-Butyl-3-[(R)-hydroxy(tetrahydro-2H-pyran-4-yl)methyl]-2,5-dioxo-1,4,9-triazaspiro[5.5]undec-9-yl}methyl)phenoxy]benzoic acid hydrochloride] showed an IC50 ([1]; read-out: Fusion assay IC50) of 302 nM.
In the case of CCCCN1C(=O)[C@@H]([C@H](O)C2CCC(O)CC2)NC(=O)C12CCN(Cc1ccc(Oc3ccc(C(=O)O)cc3)cc1)CC2 (stereo partly drawn) [Compound 20a, 4-[4-({(3R)-1-Butyl-3-[(R)-hydroxy(4-hydroxycyclohexyl)methyl]-2,5-dioxo-1,4,9-triazaspiro[5.5]undec-9-yl}methyl)phenoxy]benzoic acid hydrochloride], the IC50 ([1]; read-out: Fusion assay IC50) is reported as 537 nM.
Work on CNC(=O)c1ccc(Oc2ccc(CN3CCC4(CC3)C(=O)N[C@H]([C@H](O)C3CCCCC3)C(=O)N4C)cc2)cc1 [Compound 22, 4-[4-({(3R)-3-[(R)-Cyclohexyl(hydroxy)methyl]-1-methyl-2,5-dioxo-1,4,9-triazaspiro[5.5]undec-9-yl}methyl)phenoxy]-N-methylbenzamide hydrochloride] yielded an IC50 ([1]; read-out: Fusion assay) of 1860 nM.
In the case of CCCN1C(=O)[C@@H]([C@H](O)C2CCCCC2)NC(=O)C12CCN(Cc1ccc(Oc3ccc(C(=O)O)cc3)cc1)CC2 [Compound 25, 4-[4-({(3R)-3-[(R)-Cyclohexyl(hydroxy)methyl]-2,5-dioxo-1-propyl-1,4,9-triazaspiro[5.5]undec-9-yl}methyl)phenoxy]benzoic acid hydrochloride], the IC50 ([1]; read-out: Fusion assay) is reported as 112 nM.
In the case of CCCN1C(=O)[C@@H]([C@H](O)C2CCCCC2)NC(=O)C12CCN(Cc1ccc(Oc3ccc(C(=O)NC)cc3)cc1)CC2.Cl [Compound 26, 4-[4-({(3R)-3-[(R)-Cyclohexyl(hydroxy)methyl]-2,5-dioxo-1-propyl-1,4,9-triazaspiro[5.5]undec-9-yl}methyl)phenoxy]-N-methylbenzamide hydrochloride], the AUC (in vivo) is reported as 513 ng·h/mL, the Cmax (in vivo) is reported as 133 ng/mL and the BA [3] is reported as 11.2%.
CNC(=O)c1ccc(Oc2ccc(CN3CCC4(CC3)C(=O)N[C@H]([C@H](O)C3CCCCC3)C(=O)N4CCC(C)O)cc2)cc1 (stereo partly drawn) [Compound 30, 4-(4-{[(3R)-3-[(R)-Cyclohexyl(hydroxy)methyl]-1-(3-hydroxybutyl)-2,5-dioxo-1,4,9-triazaspiro[5.5]undec-9-yl]methyl}phenoxy)-N-methylbenzamide hydrochloride] showed an IC50 ([1]; read-out: Fusion assay) of roughly 10000 nM.
For CNC(=O)c1ccc(Oc2ccc(CN3CCC4(CC3)C(=O)N[C@H]([C@H](O)C3CCCCC3)C(=O)N4CCN)cc2)cc1.Cl.Cl [Compound 32, 4-[4-({(3R)-1-(2-Aminoethyl)-3-[(R)-cyclohexyl(hydroxy)methyl]-2,5-dioxo-1,4,9-triazaspiro[5.5]undec-9-yl}methyl)phenoxy]-N-methylbenzamide dihydrochloride], the “fold less potent antagonist activity relative to 10” value (human CCR5 [7]) was greater than 10 fold.
In the case of CNC(=O)c1ccc(Oc2ccc(CN3CCC4(CC3)C(=O)N[C@H]([C@H](O)C3CCCCC3)C(=O)N4CCN(C)C)cc2)cc1.Cl.Cl [Compound 33, 4-[4-({(3R)-3-[(R)-Cyclohexyl(hydroxy)methyl]-1-[2-(dimethylamino)ethyl]-2,5-dioxo-1,4,9-triazaspiro[5.5]undec-9-yl}methyl)phenoxy]-N-methylbenzamide dihydrochloride], the “fold less potent antagonist activity relative to 10” value (human CCR5 [7]) is reported as greater than 10 fold.
SCH-351125 showed an IC50 (HIV-1MM (R5MDR)) of 3 ± 0.5 nM, an IC50 (HIV-1Ba-L (R5); read-out: Anti-HIV-1 activity HIV-1Ba-L (R5) IC50 ± SD) of 4 ± 2 nM and an IC90 (HIV-1Ba-L (R5); read-out: Anti-HIV-1 activity HIV-1Ba-L (R5) IC90 ± SD) of 79 ± 52 nM.
